Source: patent publication US20140322198A1, “COMPOSITION COMPRISING VICENIN-2 HAVING A BENEFICIAL EFFECT ON NEUROLOGICAL AND/OR COGNITIVE FUNCTION” (priority 2011, published 2014)
Converted amounts (≈) assume the structure as drawn. “Also recorded” adds a separate entry of the source.

Tests used:
TNFα = test: Ex vivo TNFα secretion in LPS-stimulated human whole blood; format: cell-based; settings: ex vivo study, statement in words
Procedure: TNF alpha secretion [pg/ml] after co-incubation with LPS and Perilla extract of different concentration (1 μg/ml, 2.5 μg/ml and 50 μg/ml) against 450 μg/ml a benchmark blend, containing e.g. Boswellia extract, Omega 3 fatty acids, ALA and Curcumin. This study investigated the efficacy of Perilla extract comprising vicenin 2 to contribute to reduce TNFα levels. The study was designed as an ex vivo study, where human whole blood samples were treated with LPS, a bacterial blend, to stimulate inflammation which leads to an increase of the cytokine TNFα. Furthermore, the effect to reduce TNFα by Perilla extract was measured in comparison to a negative and positive control.

[1] = tested on: murine frontal cortex networks; test: Pattern recognition and classification of MEA activity patterns against NeuroProof database (105 substances); format: cell-based, mice; settings: for % of data records classified as reference substance: AUC-V, all
Procedure: Afterwards, a further analysis was carried out through a pattern-recognition analysis and through comparison with NeuroProof database to determine relevant mechanisms involved in the frontal cortex activity pattern induced changes by each substance.
To clarify the mode of action of the test substance on the activity of cortical networks these experiments were further analyzed using methods of pattern recognition. For each stable concentration activity phase the 200 spike train parameters were normalized by the native reference activity.
Using a feature selection algorithm, on the basis of the reference substances, the 40 most descriptive parameters for all 200 spike train parameters were selected. The rankings of activity features using various score methods based on classification experiments and comparing their total correct predictions were calculated. In this manner, the best results for a MDL (minimal description length) modified algorithm were obtained. A training data set with these 40 spike train parameters was established in the form of data records from the reference substances. An artificial neuronal network, multi layer feed forward network and back propagation algorithm without hidden units was then trained. The respective data records of the four substances were all subsequently classified. A classification against 105 substances in the database was carried out.

[2] = tested on: murine frontal cortex networks; test: Acute effects on cortical network activity (spike rate), MEA-neurochip multichannel recording; format: cell-based, mice
Procedure: Purpose of this example was the evaluation of the acute neuroactive effects of vicenin 2 (named AUC-V) and of Perilla extract (named AUC-P) comprising and standardized on Vicenin 2 on the neuronal activity of murine frontal cortex networks in vitro by means of electrophysiological multi-channel recordings. In this system, cells or tissues are grown directly on the chip surface and communicate via chemical and electrical signals. The MEA-neurochip allows the non-invasive, long-term, multisite recording of electrical signal patterns of primary neuronal networks. Said MEA-neurochip technology enables the characterization of network activity pattern on the single-cell action-potential level and on the level of complex neuronal networks as the basic functional units. This can also be used as a test system for investigating neuro-physiological properties of compounds. Despite the complexity, the neurophysiological action profiles of neuroactive compounds are sensitive and selective as well as robust and stable, allowing a precise pharmacological “fingerprinting” and the creation of a database of information on well-characterized neuroactive substances. The multiparametric description of the activity pattern changes caused by treatment of a brain-region-specific neuronal network is a sophisticated approach to quantify the complex effects of neuroactive agents, of unknown compounds, and of complex mixtures such as biological extracts. Correlation with well-known neuroactive substances and their specific pattern, available in specific databased, provides novel insights into the possible pharmacological and physiological mechanisms of modes of action of herbal preparations or isolated substances. […] The recorded electrical activity patterns were characterized by 200 features and their changes were statistically evaluated. […] Cultures were incubated at 37° C. in a 10% CO2 atmosphere until ready for use, which usually is four weeks to three months after seeding. […]

Q: With O=c1cc(-c2ccc(O)cc2)oc2c([C@@H]3O[C@H](CO)[C@@H](O)[C@H](O)[C@H]3O)c(O)c([C@@H]3O[C@H](CO)[C@@H](O)[C@H](O)[C@H]3O)c(O)c12 [vicenin 2, 5,7-Dihydroxy-2-(4-hydroxyphenyl)-6,8-bis[(2S,3R,4R,5S,6R)-3,4,5-trihydroxy-6 (hydroxymethyl)oxan-2-yl]chromen-4-one] as the molecule, how does the anti-inflammatory effects (TNFα) read?
A: anti-inflammatory effects

Q: What about the “% of data records classified as reference substance” value (“% of data records classified” below) ([1]; classified as Amisulpride) of the same molecule?
A: 15%

Q: What about the “% of data records classified” value ([1]; classified as Atropinemethylbromide) of the same molecule?
A: 12%

Q: What about the “% of data records classified” value ([1]; classified as DPDPE) of the same molecule?
A: 11%

Q: What about the “% of data records classified” value ([1]; classified as Enkephalin) of the same molecule?
A: 14%

Q: And the “% of data records classified” value ([1]; classified as Eserine)?
A: 15%

Q: What about the “% of data records classified” value ([1]; classified as Indatraline) of the same molecule?
A: 12%

Q: And the “% of data records classified” value ([1]; classified as Modafinil)?
A: 12%

Q: And the “% of data records classified” value ([1]; classified as Nicotine)?
A: 12%

Q: What about the “% of data records classified” value ([1]; classified as Olanzapine) of the same molecule?
A: 17%

Q: What about the “% of data records classified” value ([1]; classified as Sodium dodecyl sulfate) of the same molecule?
A: 12%

Q: What about the “activity identified by the classification” value ([1]; classification against reference substances (Amisulpride, Muscimol, Enkephalin)) of the same molecule?
A: sedative and anxiolytic activity; also recorded: enkephalin-like activity

Q: And the “electrophysiological multi-channel recording pattern compared with positive controls” value ([1]; similarity to reference substances, in words)?
A: comparable with the pattern of the positive control eserine and nicotine; also recorded: comparable with the pattern of the positive control of carboxolone; also recorded: effects similar to amisulpride

Q: And the EC50 ([2]; Mus musculus, spike rate, frontal cortex networks in vitro, 9 accumulating concentrations, read-out: EC50 of decrease of the cortical network activity)?
A: 0.002 ng/mL (≈ 0.00336 nM)

Q: And the “effects on burst structure and oscillatory behaviour of the network” value ([2]; cortical network activity pattern)?
A: no affects on the burst structure, however on the oscillatory behaviour of the network

Q: And the “maximum decrease to % of the native activity” value ([2]; cortical network activity, native activity = 100%)?
A: 80%
